Reference: US20160039904A1, “STABILIZED SINGLE HUMAN CD4 DOMAINS AND FUSION PROTEINS” (priority 2013, published 2016)

Assays:
[1] = test system: HIV-1 Bal.EC1 TC; test: TZM-bl cell-based neutralization assay; conditions: Table 6, clade B, R5
[2] = test system: HIV-1 IIIB; test: Pseudotyped HIV-1 neutralization (HOS-CD4-CXCR4 cells); format: cell-based; conditions: Table 3, clade B, X4
Procedure: (§1) To determine the potency and breadth of HIV-1 neutralization by the D1 mutants, viruses pseudotyped with Envs from HIV-1 isolates representing clades A-E and using either CCR5 (R5) or CXCR4 (X4) or both (R5X4) as a coreceptor were included. Pseudoviruses were derived from 293T cells and a neutralization assay was performed in duplicate using HOS-CD4-CCR5 (for all R5 and dual tropic viruses) or HOS-CD4-CXCR4 cell lines as described in Chen et al., Proc. Natl. Acad. Sci. USA, 105: 17121-17126 (2008)). Luminescence was measured 48 hours post-infection and the percentage neutralization was calculated by the following formula: (1—average RLU of inhibitor-containing wells/average RLU or virus-only wells)×100.

[3] = test system: HIV-1 NL4-3; test: as above; format: cell-based; conditions: Table 3; NL4-3, clade B, X4
Procedure: as §1

[4] = test system: HIV-1 KNH1088.EC5; test: TZM-bl cell-based neutralization assay; conditions: Table 6; KNH1088.EC5, clade A, R5
[5] = test system: HIV-1 pseudotyped with Envs from different clades; test: Pseudotyped HIV-1 neutralization, means over the panel of Table 3; format: cell-based; conditions: all viruses, <[…] assigned 0.01, 2G12: 10 isolates significantly neutralized
Procedure: as §1

[6] = test system: HIV-1 A07412VRC12A; test: TZM-bl cell-based neutralization assay; conditions: Table 6, clade D, R5
[7] = test system: HIV-1 primary isolates Bal and JRFL; format: cell-based; conditions: in contrast to D1D2
[8] = test system: HIV-1 CAM0015BBY.EC3; test: TZM-bl cell-based neutralization assay; conditions: Table 6; CAM0015BBY.EC3, clade AG, R5
[9] = test system: HIV-1 N1 1046.e3 PV; test: TZM-bl cell-based neutralization assay; conditions: Table 6, clade AE, R5
[10] = test system: HIV-1 Env JRFL; test: HIV-1 Env-mediated cell-cell fusion; format: cell-based; conditions: Table 5, clade B, R5
[11] = next 5 days of incubation (days 5-10), 37° C.
Procedure: The proteins were then assessed for their stability against degradation during 15 days of incubation with PBS (see FIG. 12A) or human serum (see FIG. 12B) at 37° C.

[12] = test system: HIV-1 BZ167.ec9; test: TZM-bl cell-based neutralization assay; conditions: Table 6; BZ167.ec9, clade B, X4
[13] = test system: HIV-1 55815.EC3; test: TZM-bl cell-based neutralization assay; conditions: Table 6; 55815.EC3, clade AG, R5
[14] = Solubility of fusion proteins in PBS (concentration, centrifugation); format: physicochemical
Procedure: To evaluate the potential for further development as drugs, several drug-related properties, including solubility, stability, and aggregation propensity were tested.

[15] = test system: HIV-1 CM240.EC1; test: TZM-bl cell-based neutralization assay; conditions: Table 6; CM240.EC1, clade AE, R5
[16] = Stability against degradation in PBS at 37° C. (binding activity to gp140Con-s); format: physicochemical

For “4Dm2m: bispecific multivalent fusion protein of mD1.22 and m36.4; two SEQ ID NO: 20 and two SEQ ID NO: 21 chains”, the IC50 [1] was 0.057 nM, the IC90 [1] was 0.22 nM and the IC50 [2] was 0.037 ± 0.001 nM. For the same substance, the IC90 [2] was 0.1 ± 0.01 nM, the IC50 [3] was 0.094 ± 0.002 nM and the IC90 [3] was 0.15 ± 0.02 nM. For the same substance, the IC50 [4] was 0.48 nM, the “IC50, arithmetic mean” value [5] was 0.22 nM and the “IC50, geometric mean” value [5] was 0.12 nM. The “IC90, arithmetic mean” value [5] was 1.6 nM, the “IC90, geometric mean” value [5] was 0.56 nM and the IC50 [6] was 0.75 nM. For the same substance, the IC90 [6] was 5.7 nM, the “enhancement of HIV-1 infectivity at low concentrations” value [7] was “not enhance HIV-1 infectivity” and the IC50 [8] was 0.72 nM. It also gave an IC90 [8] of 7.4 nM, an IC90 [9] of 27 nM and an IC50 [10] of 3.6 ± 0.2 nM. For the same substance, the IC90 [10] was 8.8 ± 0.4 nM, the “degradation in human serum” value [11] was “slower than that of CD4-Ig” and the IC50 [12] was 0.077 nM. The IC90 [12] was 0.5 nM, the IC50 [13] was 0.084 nM and the IC90 [13] was 0.61 nM. For the same substance, the precipitation on storage ([14]; 4° C. for 2 weeks) was “no additional precipitation was observed”, the “concentration reached in PBS without visible precipitation after high-speed centrifugation” value ([14]; PBS) was 25000 µg/mL and the IC50 [15] was 0.45 nM. The IC90 [15] was 3.7 nM, the remained functional ([16]; end of 15 days of incubation with PBS) was “about 90%” and the “amount of functional protein” value ([16]; incubation in PBS for 10 days) was “no significant decrease”.
